Measurements reported in patent US8017612B2, “Piperazine compound and use thereof as a HCV polymerase inhibitor” (priority 2006, dated 2011).

What was measured:
[1] = biological target: T1, HCV polymerase (NS5B) type 1b (Hepatitis C virus genotype 1b, UniProt P26663); experiment: Assay of enzyme (HCV polymerase) inhibitory activity, type 1b enzyme; format: biochemical, HCV BK strain (type 1b); conditions: HCV polymerase inhibitory activity IC50, 1b, type 1b enzyme
T1 construct: a region encoding NS5B (J Virol 1991 March, 65(3), 1105-13, 544 amino acids after deletion of 47 amino acids on the C-terminal); 6xHis (C); made in house; host or cells: Escherichia coli
Outline: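 Polymerase activity was followed as radiolabelled UTP incorporation by E. coli-expressed, His-tagged NS5B of HCV type 1b lacking its last 47 residues. Conditions: 2 μM UTP, 50 μM other NTPs, Mg2+ buffer at pH 7.5, 25 °C for 60 min. Inhibition relative to compound-free reactions gave IC50.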

[2] = biological target: T2, HCV polymerase (NS5B) type 1a (Hepatitis C virus genotype 1a, UniProt P26664); experiment: Assay of enzyme (HCV polymerase) inhibitory activity, type 1a enzyme; format: biochemical, HCV type 1a (cloned from the blood of patients); conditions: HCV polymerase inhibitory activity IC50, 1a, type 1a enzyme
T2 construct: made in house; host or cells: Escherichia coli (by the 'similar method' of the 1b enzyme)
Outline: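 IC50 values derive from radioactivity of newly synthesized RNA with versus without test compound. The enzyme was C-terminally truncated type 1a NS5B, 1.5 μg/ml, run 60 min at 25° C with 3H-UTP-labelled nucleotides.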

| SMILES | IC50 [1] [nM] | IC50 [2] [nM] |
| --- | --- | --- |
| O=C(NCc1ccc(OC(F)(F)F)cc1)[C@H]1CN(c2nc3c(=O)n(CCO)ncc3s2)CCN1S(=O)(=O)c1ccc(OC(F)(F)F)cc1 [Example 1078, (R)-4-[5-(2-hydroxy-ethyl)-4-oxo-4,5-dihydro-thiazolo[4,5-d]pyridazin-2-yl]-1-(4-trifluoromethoxy-benzenesulfonyl)-piperazine-2-carboxylic acid 4-trifluoromethoxy-benzylamide] | < 100 | < 100 |
| COC1(c2ncc3sc(N4CCN(S(=O)(=O)c5ccc(OC(F)(F)F)cc5)[C@@H](C(=O)NCc5ccc(OC(F)(F)F)cc5)C4)nc3n2)CC1 [Example 1079, (R)-4-[5-(1-methoxy-cyclopropyl)-thiazolo[4,5-d]pyrimidin-2-yl]-1-(4-trifluoromethoxy-benzenesulfonyl)-piperazine-2-carboxylic acid 4-trifluoromethoxy-benzylamide] | < 100 | < 100 |
| O=C(NCc1ccc(OC(F)(F)F)cc1)[C@H]1CN(c2nc3nc(C4(O)CC4)ncc3s2)CCN1S(=O)(=O)c1ccc(OC(F)(F)F)cc1 [Example 1080, (R)-4-[5-(1-hydroxy-cyclopropyl)-thiazolo[4,5-d]pyrimidin-2-yl]-1-(4-trifluoromethoxy-benzenesulfonyl)-piperazine-2-carboxylic acid 4-trifluoromethoxy-benzylamide] | < 100 | < 100 |
| CCCc1ccc(CNC(=O)[C@H]2CN(c3nc4cc(C(=O)OC(C)(C)C)ncc4s3)CCN2S(=O)(=O)c2ccc(OC(F)(F)F)cc2)cc1 [Example 1081, 2-[(R)-3-(4-propyl-benzylcarbamoyl)-4-(4-trifluoromethoxy-benzenesulfonyl)-piperazin-1-yl]-thiazolo[5,4-c]pyridine-6-carboxylic acid tert-butyl ester] | < 100 | < 100 |
| CCCc1ccc(CNC(=O)[C@H]2CN(c3nc4cc(C(=O)O)ncc4s3)CCN2S(=O)(=O)c2ccc(OC(F)(F)F)cc2)cc1 [Example 1082, 2-[(R)-3-(4-propyl-benzylcarbamoyl)-4-(4-trifluoromethoxy-benzenesulfonyl)-piperazin-1-yl]-thiazolo[5,4-c]pyridine-6-carboxylic acid] | < 100 | < 100 |
| CCCc1ccc(CNC(=O)[C@H]2CN(c3nc4c(C(=O)OCC)cncc4s3)CCN2S(=O)(=O)c2ccc(OC(F)(F)F)cc2)cc1 [Example 1083, 2-[(R)-3-(4-propyl-benzylcarbamoyl)-4-(4-trifluoromethoxy-benzenesulfonyl)-piperazin-1-yl]-thiazolo[5,4-c]pyridine-7-carboxylic acid ethyl ester] | < 100 | < 100 |
| CCCc1ccc(CNC(=O)[C@H]2CN(c3nc4c(C(=O)O)cncc4s3)CCN2S(=O)(=O)c2ccc(OC(F)(F)F)cc2)cc1 [Example 1084, 2-[(R)-3-(4-propyl-benzylcarbamoyl)-4-(4-trifluoromethoxy-benzenesulfonyl)-piperazin-1-yl]-thiazolo[5,4-c]pyridine-7-carboxylic acid] | < 100 | < 100 |
| O=C(NCc1ccc(OC(F)F)c(F)c1)[C@H]1CN(c2nc3nc(C(F)(F)F)ncc3s2)CCN1S(=O)(=O)c1ccc(C(F)(F)F)cc1 [Example 1085, (R)-1-(4-trifluoromethyl-benzenesulfonyl)-4-(5-trifluoromethyl-thiazolo[4,5-d]pyrimidin-2-yl)-piperazine-2-carboxylic acid 4-difluoromethoxy-3-fluoro-benzylamide] | < 100 | < 100 |
| O=C(NCc1ccc(OC(F)(F)F)cc1)[C@H]1CN(c2nc3ccc(=O)[nH]c3s2)CCN1S(=O)(=O)c1ccc(C(F)(F)F)cc1 [Example 1086, (R)-4-(5-oxo-4,5-dihydro-thiazolo[5,4-b]pyridin-2-yl)-1-(4-trifluoromethyl-benzenesulfonyl)-piperazine-2-carboxylic acid 4-trifluoromethoxy-benzylamide] | < 100 | < 100 |
| O=C(NCc1ccc(OC(F)(F)F)cc1)[C@H]1CN(c2nc3nc(OC(F)F)ncc3s2)CCN1S(=O)(=O)c1ccc(OC(F)(F)F)cc1 [Example 1087, (R)-4-(5-difluoromethoxy-thiazolo[4,5-d]pyrimidin-2-yl)-1-(4-trifluoromethoxy-benzenesulfonyl)-piperazine-2-carboxylic acid 4-trifluoromethoxy-benzylamide] | < 100 | < 100 |
| CC(C)c1cc(=O)nc2sc(N3CCN(S(=O)(=O)c4ccc(OC(F)(F)F)cc4)[C@@H](C(=O)NCc4ccc(OC(F)(F)F)cc4)C3)nn12 [Example 1088, (R)-4-(5-isopropyl-7-oxo-7H-[1,3,4]thiadiazolo[3,2-a]pyrimidin-2-yl)-1-(4-trifluoromethoxy-benzenesulfonyl)-piperazine-2-carboxylic acid 4-trifluoromethoxy-benzylamide] | < 100 | < 100 |
| CC(C)c1cc(=O)nc2sc(N3CCN(S(=O)(=O)c4ccc(OC(F)(F)F)cc4)[C@@H](C(=O)NCc4ccc(OC(F)F)cc4)C3)nn12 [Example 1089, (R)-4-(5-isopropyl-7-oxo-7H-[1,3,4]thiadiazolo[3,2-a]pyrimidin-2-yl)-1-(4-trifluoromethoxy-benzenesulfonyl)-piperazine-2-carboxylic acid 4-difluoromethoxy-benzylamide] | < 100 | < 100 |
| Nc1nc(C2CC2)nc2nc(N3CCN(S(=O)(=O)c4ccc(OC(F)(F)F)cc4)[C@@H](C(=O)NCc4ccc(OC(F)(F)F)cc4)C3)sc12 [Example 1090, (R)-4-(7-amino-5-cyclopropyl-thiazolo[4,5-d]pyrimidin-2-yl)-1-(4-trifluoromethoxy-benzenesulfonyl)-piperazine-2-carboxylic acid 4-trifluoromethoxy-benzylamide] | < 100 | < 100 |
| CC(C)(O)c1nc(N)c2sc(N3CCN(S(=O)(=O)c4ccc(OC(F)(F)F)cc4)[C@@H](C(=O)NCc4ccc(OC(F)(F)F)cc4)C3)nc2n1 [Example 1091, (R)-4-[7-amino-5-(1-hydroxy-1-methyl-ethyl)-thiazolo[4,5-d]pyrimidin-2-yl]-1-(4-trifluoromethoxy-benzenesulfonyl)-piperazine-2-carboxylic acid 4-trifluoromethoxy-benzylamide] | < 100 | < 100 |
| CCCc1ccc(CNC(=O)[C@H]2CN(c3nc(C)c(C(O)C(=O)O)s3)CCN2S(=O)(=O)c2ccc(OC(F)(F)F)cc2)cc1 (stereo partly drawn) [Example 1092, hydroxy-{4-methyl-2-[(R)-3-(4-propyl-benzylcarbamoyl)-4-(4-trifluoromethoxy-benzenesulfonyl)-piperazin-1-yl]-thiazol-5-yl}-acetic acid] | < 100 | 100 to 1000 |
| CCN(C)c1ccc(CNC(=O)[C@H]2CN(c3nc(Cl)c(C(=O)O)s3)CCN2S(=O)(=O)c2ccc(OC(F)(F)F)cc2)cc1 [Example 1093, 4-chloro-2-[(R)-3-[4-(ethyl-methyl-amino)-benzylcarbamoyl]-4-(4-trifluoromethoxy-benzenesulfonyl)-piperazin-1-yl]-thiazole-5-carboxylic acid] | < 100 | < 100 |
| CCCc1ccc(CNC(=O)[C@H]2CN(c3cc(C)n(CC(=O)O)n3)CCN2S(=O)(=O)c2ccc(OC(F)(F)F)cc2)cc1 [Example 1094, {5-methyl-3-[(R)-3-(4-propyl-benzylcarbamoyl)-4-(4-trifluoromethoxy-benzenesulfonyl)-piperazin-1-yl]-pyrazol-1-yl}-acetic acid] | 100 to 1000 | 100 to 1000 |
| CC[N+](CC)(CC)Cc1cnc(N2CCN(S(=O)(=O)c3ccc(OC(F)(F)F)cc3)[C@@H](C(=O)NCc3ccc(C(C)(C)C)cc3)C2)cn1 [Example 1095, [(R)-3-(4-tert-butyl-benzylcarbamoyl)-4-(4-trifluoromethoxy-benzenesulfonyl)-3,4,5,6-tetrahydro-2H-[1,2′]bipyrazinyl-5′-ylmethyl]-triethyl-ammonium trifluoro-methanesulfonate] | 100 to 1000 | 100 to 1000 |
| CCC(F)(F)c1ccc(CNC(=O)[C@H]2CN(C(=O)Cn3nnc(N)n3)CCN2S(=O)(=O)c2ccc(OC(F)(F)F)cc2)cc1 [Example 1096, (R)-4-[2-(5-amino-tetrazol-2-yl)-acetyl]-1-(4-trifluoromethoxy-benzenesulfonyl)-piperazine-2-carboxylic acid 4-(1,1-difluoro-propyl)-benzylamide] | < 100 | < 100 |
| CCC(F)(F)c1ccc(CNC(=O)[C@H]2CN(C(=O)Cn3nnnc3N)CCN2S(=O)(=O)c2ccc(OC(F)(F)F)cc2)cc1 [Example 1097, (R)-4-[2-(5-amino-tetrazol-1-yl)-acetyl]-1-(4-trifluoromethoxy-benzenesulfonyl)-piperazine-2-carboxylic acid 4-(1,1-difluoro-propyl)-benzylamide] | 100 to 1000 | 100 to 1000 |
| O=C(NCc1ccc(OC(F)(F)F)cc1)[C@H]1CN(c2nc3nc(CCO)ncc3s2)CCN1S(=O)(=O)c1ccc(OC(F)(F)F)cc1 [Example 1098, (R)-4-[5-(2-hydroxy-ethyl)-thiazolo[4,5-d]pyrimidin-2-yl]-1-(4-trifluoromethoxy-benzenesulfonyl)-piperazine-2-carboxylic acid 4-trifluoromethoxy-benzylamide] | < 100 | < 100 |
